Assay results from patent US11203598B2, “Compounds for repressing cancer cell growth” (Institute For Cancer Research, priority 2018, dated 2021).
Values belong to the molecule of their own block, whether it stands above or below them.

What was measured:
[1] = tested on: p53 pathway proteins in DLD-1 cells; assay: Western blot of p53 targets and LC3B; type: cell-based, human; conditions: DLD-1, 24 hours
Procedure: (§1) After treatment, cells were harvested by trypsinization, washed with PBS, and lysed with RIPA buffer (Sigma-Aldrich) for 30 minutes to 1 hour at 4° C. Protein lysates were spun down and supernatant was collected. Protein quantification was performed using a Pierce™ BCA Protein Assay Kit (Thermo Fisher Scientific). 1×NuPAGE® LDS sample buffer (Thermo Fisher Scientific) and 2-Mercaptoethanol as the reducing agent (Sigma-Aldrich) were added to protein lysates, followed by boiling for 15 minutes at 95° C. Equal total protein amounts samples were loaded into NuPAGE™ Novex™ 4-12% Bis-Tris Protein Gels (1.5 mm, Thermo Fisher Scientific) and gel eletrophoresis was performed with NuPAGE™ MES SDS Running Buffer. Proteins were transferred onto an Immobilon-P membrane (PVDF, EMD Millipore) using a Bio-Rad system with a 10% Tris-Glycine and 10% methanol transfer buffer diluted in distilled and deionized water. After transfer, membranes were blocked with 10% milk in TBST solution and then incubated overnight with primary antibody, washed with TBST and incubated with secondary antibody for 1 hour. Incubations were performed in 5% milk in TBST solution. Signal was detected by using a chemiluminescent detection kit, followed by autoradiography. The following antibodies were used: p53 (DO-1, 1:1000, Santa Cruz), p73 (1:1000, Bethyl Laboratories), p21 and NOXA (1:250, EMD Millipore), DR5, FADD, cleaved caspase 3, cleaved caspase 8, cleaved PARP, and LC3B (1:1000, Cell Signaling), and β-actin (1:10000, Sigma).
(§2) Proteins were isolated using NP40 Lysis Buffer (20 mmol/L Tris-HCl (pH 7.4), 150 mmol/L NaCl, 5 mmol/L EDTA, 50 mmol/L NaF, 1 mmol/L glycerophosphate, 5 mmol/L Na4P2O7, 0.5% NP40, and complete protease inhibitor cocktail (Roche)) and electrophoresed through 4-12% SDS-PAGE followed by semi-dry transfer to PVDF membranes. The PVDF membranes were incubated with different antibodies including p21 (OP64-100UG, EMD Millipore (world wide web at emdmillipore.com/US/en/product/Antip21WAF1-(Ab-1)-Mouse-mAb-(EA10), EMD_BIO-OP64)), PUMA (12450S, Cell Signaling Technology, world wide web at cellsignal.com/products/primary-antibodies/puma-d30c10-rabbit-mab/12450), DR5 (3696S, Cell Signaling Technology, world wide web at cellsignal.com/products/primary-antibodies/dr5-antibody/3696?N=4294956287&Ntt=3696s&fromPage=plp& requestid=541668), p53(sc-126, Santa Cruz, world wide web at scbt.com/scbt/fr/product/p53-antibody-do-1), and RAN (610341, BD Transduction Laboratories, world wide web at bdbiosciences.com/us/reagents/research/antibodies-buffers/cell-biologyreagents/cell-biology-antibodies/purified-mouse-anti-ran-20ran/p/610341) in blocking buffer at 4° C. overnight. Bound antibody will be detected using IRDye secondary antibodies (LI-COR Biosciences,) in Odyssey blocking buffer for 1 hour then imaged using the ODYSSEY infrared imaging system.

cell cycle G2 checkpoint = assay: propidium iodide staining cell cycle analysis; type: cell-based; conditions: 24 hour treatment, alone and with etoposide
Procedure: Referring to FIG. 22 (panels A-F), propidium iodide staining cell cycle analysis for 24 hour treatment with DMSO (panel A), CB002 (panel B), CB002 and etoposide (panel C), etoposide (panel D), caffeine (panel E), and caffeine and etoposixe (panel F). […] The deregulation of the G2 checkpoint as a mechanism by caffeine prevents […] tumor cells that are treated with DNA damaging drugs, such as etoposide, from arresting to have time to repair, and thus sensitizes cancer cells to cell death.

[2] = tested on: p53 pathway proteins in SW480 cells; assay: Western blot of p53, p53 targets, apoptosis and autophagy markers; type: cell-based, human; conditions: for Noxa protein expression: SW80 cells, 24 hours
Procedure: as §1, §2

[3] = tested on: MM1S Bortezomib resistant cells; assay: Cell Titer-Glo cell viability with bortezomib; type: cell-based; conditions: 25 μM Analog 4
Procedure: Referring to FIG. 21 (panel C), 3×10^4 cells/well of MM1S parental and Bortezomib MM1S resistant cells were seeded in a 96-well plate. Cell viability was determined by the Cell Titer-Glo® Assay.

8226 cells = assay: combination treatment with bortezomib, combination index (CompuSyn); type: cell-based; conditions: 48 hours, 0-100 nM Bortezomib with 0-200 μM analog
Procedure: Referring to FIG. 21 (panels A and B), 3×10^4 cells/well of 8226 cells were seeded in a 96-well plate. The cells were treated for 48 hours with a combination of 0-100 nM Bortezomib with 0-200 μM Analog 4 (see, panel A) and 0-100 nM Bortezomib with 0-200 μM Analog 11 (see, FIG. 21, panel B). CompuSyn software was used to analyze the combination index of both drugs.

SW480 cells [4] = assay: CellTiter-Glo luminescent cell viability assay; type: cell-based, human
Procedure: Cells were seeded in 96-well plates at a density of 5×10^3 cells per well. 20 μL of CellTiter-Glo® Reagent was added directly to the wells, following the manufacturer's protocol, and bioluminescence signal was determined using an IVIS imaging system.
Cell lines at a concentration of 4×10^3 cells/well were seeded out on an opaque 96-well plate and treated with CB002 and Analog 11 in ranging doses starting from 200 μmol/L with DMSO controls. At 72 hours after treatment, cells were mixed with 30 μL Cell Titer-Glo reagent and after ten minutes of room temperature incubation were imaged using IVIS imaging system (Xenogen).
To begin establishing the potential of CB002 as a candidate therapeutic agent, its therapeutic index was determined by treating cancer (DLD-1, SW480, and RXF393) and normal (WI38 and MRC5) cell lines with concentrations of CB002 ranging from 0-500 μM for a period of 72 hours and assessing cell viability by the CellTiter-Glo® luminescence assay (see, FIG. 2). CB002 has a significant therapeutic index among the cells tested.

SW480 cells [5] = assay: apoptosis assay, sub-G1 analysis (propidium iodide, flow cytometry); type: cell-based, human; conditions: 25 μM, 48 hours
Procedure: (§3) Apoptotic cells were quantified by sub-G1 analysis. Cells were seeded at a density of 2.5×10^5 to 5×10^5 in a 6-well plate and treated for 48-72 hours. After treatment, adherent cells were trypsinized and collected along with floating cells, washed with PBS and fixed in 70% ethanol. Cells were then incubated in a Phosphate-citric acid buffer (0.2 M Na2HPO4+0.1 M Citric Acid, pH 7.8) at room temperature for 5 minutes, spun down and resuspended for staining with 50 μg/mL propidium iodide (PI) in the presence of 250 μg/mL pancreatic ribonuclease (RNase A). Sub-G1 analyses were performed using an Epics Elite Epics flow cytometer (Coulter-Beckman).
(§4) Cells were seeded out at 1×10^6 cells/well on six well plates and treated with CB002 and Analog 11 at ranging doses with DMSO controls. Cells were harvested after 72 hours of treatment, all cells including floating cells were fixed with ethanol and stained with Propidium Iodide and then analyzed using Epics Elite flow cytometer to measure the DNA content of the stained cells.

WI38 normal cells = assay: as above; type: cell-based, human; conditions: 25 μM, 48 hours
Procedure: as §3, §4

[6] = tested on: Noxa in 8226 bortezomib resistant multiple myeloma cell line; assay: Western blot of Noxa; type: cell-based; conditions: 25 μM Analog 4, 100 μM Analog 11
Procedure: Referring to FIG. 20 (panel C), 1×10^6 cells/well were seeded in a 12-well plate. 8226 parental and resistant multiple myeloma cell lines were treated with 100 μM CB002, 25 μM Analog 4, or 100 μM Analog 11.

Structure (SMILES): Cn1c(=O)c2c(ncn2C)n(C)c1=O [caffeine, reference compound]
Noxa protein expression [1]: dis not induce Noxa expression
effect on cell cycle G2 checkpoint (cell cycle G2 checkpoint): can deregulate the cell cycle G2 checkpoint
Noxa protein expression [2]: dis not induce Noxa expression

IC50 ranking among CB002 analogs (SW480 cells [4]; Cell Titer-Glo, serial dilution): most potent compound
Structure (SMILES): Cn1c(=O)c2[nH]c(Nc3cccc(C(F)(F)F)c3)nc2n(C)c1=O [Analog 4]
expression of DR5, Noxa and cleaved Parp ([2]; 12 or 25 μM, 16 and 24 hours): increased expression of DR5, Noxa, and cleaved Parp
Noxa expression ([2]; 24 hour, 100 μM CB002, 25 NM Analog 4, 100 μM Analog 11): Induction of Noxa expression
sensitization to Bortezomib (cell viability) [3]: able to sensitize MM1S resistant cells to Bortezomib treatment
synergy with Bortezomib (combination index) (8226 cells): synergyze the most with Bortezomib
apoptosis by sub-G1 content (SW480 cells [5]): underwent apoptosis
apoptosis by sub-G1 content (WI38 normal cells): not normal human fibroblast WI38 cells
Noxa expression [6]: able to induce Noxa expression

Structure (SMILES): Cn1c(=O)c2[nH]cnc2n(C)c1=O [theophylline, reference compound]
Noxa protein expression [1]: dis not induce Noxa expression
Noxa protein expression [2]: dis not induce Noxa expression

Structure (SMILES): CC(=O)CCCCn1c(=O)c2c(ncn2C)n(C)c1=O [pentoxifylline, reference compound]
Noxa protein expression [1]: dis not induce Noxa expression
Noxa protein expression [2]: dis not induce Noxa expression

Structure (SMILES): O=c1[nH]cc(F)c(=O)[nH]1 [Analog 5-FU, 5-fluorouracil, reference compound]
toxicity (cell viability reduction), 5-FU versus CPT-11 (SW480 cells [4]; 72 hours, ascending doses): greater toxicity
